Test results published in PMC2952696 (Bioorganic & medicinal chemistry letters, 2010).

How the values were obtained:
Format in all cases: biochemical
human nNOS = human nNOS (Homo sapiens, UniProt P29475); test: NOS inhibition assay, human nNOS; conditions: human nNOS vs rat nNOS
rat nNOS = rat nNOS (Rattus norvegicus, UniProt P29476); test: NOS inhibition assay, rat nNOS; conditions: for selectivity n/e: rat nNOS over bovine eNOS; for selectivity n/i: rat nNOS over murine iNOS
bovine eNOS = bovine eNOS (Bos taurus, UniProt P29473); test: NOS inhibition assay, bovine eNOS; conditions: 2a vs 1

drop of selectivity (Ki-human/Ki-rat) compared to 1 (human nNOS) | selectivity n/e (rat nNOS) | selectivity n/i (rat nNOS) | lower potency for rat nNOS compared to 2a (rat nNOS; 2b vs 2a) | difference in eNOS potency compared to 1 (bovine eNOS) | drop of selectivity for rat nNOS over bovine eNOS compared to 1 (rat nNOS; 2a vs 1) | impaired potency for rat nNOS compared to 1 (rat nNOS; 2a vs 1, removal of 4-methyl group) | SMILES
1.6 fold | 530 | 200 |  |  |  |  | N=C1CCCC(C[C@@H]2CNC[C@@H]2OCCNCCc2cccc(F)c2)N1 (stereo partly drawn) [Compound 3]
 | 270 | 60 | 4 fold |  |  |  | Nc1cccc(C[C@H]2CNC[C@H]2OCCNCCc2cccc(F)c2)n1 [Compound 2b]
1.2 fold | 1,200 | 200 |  | 3 fold | 2.3 fold | 7 fold | Nc1cccc(C[C@@H]2CNC[C@@H]2OCCNCCc2cccc(F)c2)n1 [Compound 2a]
